Here are results for 13 molecules from patent US20260055078A1, “COMPOUND FUNCTIONING AS SMARCA2/4 INHIBITOR AND USE THEREOF” (Gan & Lee Pharmaceuticals Co., Ltd., priority 2022, published 2026).

For orientation: pIC50 means −log10 of the IC50, conventionally taken in molar units.

In one data set the target is T1, SMARCA2^BD protein (Homo sapiens, UniProt P51531, I1395R).
T1 construct: His-SMARCA2^BD(S1377-Q1486); His6 (leader mhhhhhhgslvpr\gs, with thrombin-type site lvpr\gs) (N); made in house
Description: Fluorescence polarization (FP) detection, SMARCA2 bromodomain. The format is binding. As to conditions: probe 10 nM, SMARCA2^BD protein 50 nM, 2 h room temperature. Here is the method:
(§1) • 1. Perform a fluorescence polarization assay on with the target protein, which has been expressed and purified from prokaryotic cells to a purity of >90%.
(§2) • 2. The fluorescence polarization assay was conducted in a 384-well plate (3820, Corning) protected from light, with an excitation wavelength of 485 nm and an emission wavelength of 520 nm. Fluorescent probe was used in the experiment, and the buffer solution was 25 mM Bis-Tris, 0.01% Triton X-100, at pH 7.5. The final concentration of DMSO after the addition of the compound was less than 1%. The final detection volume per well was 125 μl, containing 50 μl of the fluorescent probe (final concentration 10 nM), 50 μl of SMARCA2^BD protein (final concentration 50 nM) or 50 μl of SMARCA4^BD protein (final concentration 120 nM), and 25 μl of the compound at various concentrations (final concentration ranging from 0 to 100 µM with a 3-fold dilution, a total of 11 concentrations). A control group (probe+protein), a probe control group (probe only), and a blank control group (buffer only) were set up. The fluorescence values were read by an ELISA reader r (SPARK m1000 pro, TECAN) after incubation for 2 h at room temperature on a shaker. The polarization value mP is calculated based on the fluorescence values in parallel and perpendicular directions of each well, and then the inhibition rate is calculated based on the mP value:
(§3) The inhibition rate data was plotted in GraphPad Prism 8.0 software and the IC50 value was calculated.

A further data set has as its system A549 cell line. Kind of data set: Cell proliferation assay (CCK-8), A549. The format is cell-based. As to conditions: Homo sapiens, A549, 96 h; Table 1; 4 days incubation with compound; read-out: A549 cell line CCK8 IC50. As for the experimental part:
(§4) The antiproliferative activity of the compounds on the cells was determined by CCK-8 kit (C0039, Biotronik). A549 (CCL-185™, ATCC) and MCF-7 (HTB-22™, ATCC) cells were incubated with F-12K medium (30-2004, ATCC) containing 10% FBS (10099141C, Gibco) and DMEM medium (11995065, Gibco) containing 10% FBS, respectively, at 37° C. with 5% CO2 until entering the logarithmic growth phase. In 96-well plates, 2800 cells (A549) or 1000 cells (MCF-7) was added in a volume of 100 μL, the blank control group was 100 μL of medium. After one day of incubation at 37° C., 5% CO2, 100 μL of compounds of different concentrations were added (final concentration of […], 3-fold dilution, a total of 9 concentrations), and the control group was added to 100 μL of medium and continued to be incubation for 4 days (A549) or 7 days (MCF-7). According to the manufacturer's instructions, 20 μL of CCK-8 solution was added. Finally, the absorbance at 450 nm was measured using a microplate reader (SPARK m1000 pro, TECAN) after incubation at 37° C. for 2 h (A549) or 4 h (MCF-7).
(§5) The inhibition rate of the compounds on the cells at different concentrations was calculated based on the OD values of each well, and the inhibition rate data were plotted in GraphPad Prism 8.0 software to calculate the IC50 values.

In another data set the test system is MCF-7 cell line. Description: Cell proliferation assay (CCK-8), MCF-7. The format is cell-based. As to conditions: Homo sapiens, MCF7, 168 h; Table 1; 7 days incubation with compound; read-out: MCF-7 cell line CCK8 IC50. As for the experimental part: as §4, §5
The target of another data set is T2, SMARCA4^BD protein (Homo sapiens, UniProt P51532).
T2 construct: His6 (leader mhhhhhhgslvpr\gs, with thrombin-type site lvpr\gs) (N); made in house
Kind of data set: Fluorescence polarization (FP) detection, SMARCA4 bromodomain. Particulars: probe 10 nM, SMARCA4^BD protein 120 nM, 2 h room temperature. The format is binding. Here is the method:
as §1, §2, §3
For orientation: In fluorescence polarisation assays a small probe gives low polarisation when free and higher when bound to something large.

The next data set concerns Hela cell line. Kind of data set: Cell proliferation assay (CCK-8), Hela. The format is cell-based. As to conditions: Homo sapiens, 72 h, Table 2, 3 days incubation with compound, read-out: Hela cell line CCK8 IC50. Here is the method:
(§6) The antiproliferative activity of the compounds on the cells was determined by CCK-8 kit (C0039, Biotronik). Hela (CCL-2™, ATCC) and SW1573 (CRL-2170™, ATCC) cells were incubated with DMEM medium (11995065, Gibco) containing 10% FBS (10099141C, Gibco) at 37° C. with 5% CO2 until entering the logarithmic growth phase. In 96-well plates, 2500 cells (Hela) or 800 cells (SW1573) were added in a volume of 100 μL, the blank control group was 100 μL of medium, and after one day of incubation at 37° C., 5% CO2, 100 μL of compounds of different concentrations were added (final concentration of […], 3-fold dilution, a total of 9 concentrations), and the control group was added to 100 μL of medium and continued to incubate for 3 days (Hela) or 7 days (SW1573). Then 20 μL of CCK-8 solution were added. Finally, the absorbance at 450 nm was measured using a microplate reader (SPARK m1000 pro, TECAN) after incubation at 37° C. for 1.5 h (Hela) or 2.5 h (SW1573).
as §5

The subject of the next data set is SW1573 cell line. Kind of data set: Cell proliferation assay (CCK-8), SW1573. As to conditions: Homo sapiens, SW1573, 168 h; Table 2; 7 days incubation with compound; read-out: SW1573 cell line CCK8 IC50. The format is cell-based. As for the experimental part: as §6, §5
The subject of the next data set is 148 cancer cells. As to conditions: background, literature; cited from earlier work.
The conditions of data set [1]: aryl ketone linked to tertiary amines; limited intracellular exposure time; literature; cited from earlier work.

pIC50: −log10 of the molar value.

T1 sequence (P51531 1377-1486 isoform P51531-2 I1395R): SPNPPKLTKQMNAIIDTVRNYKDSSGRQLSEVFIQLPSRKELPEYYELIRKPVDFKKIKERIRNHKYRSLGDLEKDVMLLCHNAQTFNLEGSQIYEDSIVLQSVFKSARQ
T2 sequence (P51532 1448-1575): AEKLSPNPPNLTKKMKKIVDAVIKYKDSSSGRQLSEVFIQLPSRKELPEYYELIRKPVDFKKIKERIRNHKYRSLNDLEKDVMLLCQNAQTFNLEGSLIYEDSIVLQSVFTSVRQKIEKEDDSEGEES

For the molecule `Nc1nnc(-c2ccccc2O)cc1C#CC1CCNCC1` [Compound 1c, 2-(6-amino-5-(piperidin-4-ylethynyl)pyridazin-3-yl)phenol], the negative logarithm of the IC50 (pIC50) is 6.72 at SMARCA2^BD protein (Table 1), 4.60 in the data set with A549 cell line, 4.92 in the data set with MCF-7 cell line and 6.52 on SMARCA4^BD protein (Table 1).

Take `Nc1nnc(-c2ccccc2O)cc1C#CC1CCNC1` (stereo not shown) [Compound 2c, 2-(6-Amino-5-(pyrrolidin-3-ylethynyl)pyridazin-3-yl)phenol]: the negative logarithm of the IC50 (pIC50) is 6.48 at SMARCA2^BD protein (Table 1), 5.14 in the data set on A549 cell line, 5.33 with MCF-7 cell line and 6.55 on SMARCA4^BD protein (Table 1).

Consider `Nc1nnc(-c2ccccc2O)cc1C#CC1CNC1` [Compound 3c, 2-(6-amino-5-(azetidinyl-3-ethylenylidene)pyridazin-3-yl)phenol], for which the negative-log IC50 (pIC50) is 6.32 at SMARCA2^BD protein (Table 1), 4.14 with A549 cell line, 4.51 in the data set on MCF-7 cell line and 6.24 at SMARCA4^BD protein (Table 1).

With `Nc1nnc(-c2ccccc2O)cc1C#CC1CC2(CNC2)C1` [Compound 4c, 2-(5-((2-Azaspiro[3.3]hept-6-yl)ethynyl)-6-aminopyridazin-3-yl)phenol], the pIC50 against SMARCA2^BD protein (Table 1) was 6.72; with A549 cell line, 4.80; in the data set on MCF-7 cell line it was 4.91; against SMARCA4^BD protein (Table 1), 6.82.

Turning to `Nc1nnc(-c2ccccc2O)cc1C#CC1CCC2(CC1)CNC2` [Compound 5c, 2-(5-((2-Azaspiro[3.5]nonan-7-yl)ethynyl)-6-aminopyridazin-3-yl)phenol], the negative-log IC50 (pIC50) at SMARCA2^BD protein (Table 1) was 6.89; in the data set with A549 cell line it was 4.81; in the data set with MCF-7 cell line, 5.12; on SMARCA4^BD protein (Table 1), 6.89.

On to `Nc1nnc(-c2ccccc2O)cc1C#CC1CCC2(CCNCC2)CC1` [Compound 6c, 2-(5-((3-Azaspiro[5.5]undecan-9-yl)ethynyl)-6-aminopyridazin-3-yl)phenol], for which the negative logarithm of the IC50 (pIC50) is 6.70 against SMARCA2^BD protein (Table 1), 4.87 in the data set on A549 cell line, 5.43 in the data set with MCF-7 cell line and 6.82 on SMARCA4^BD protein (Table 1).

Take `Nc1nnc(-c2ccccc2O)cc1C#CC1CC2(CCNCC2)C1` [Compound 10c, 2-(5-((7-Azaspiro[3.5]nonan-2-yl)ethynyl)-6-aminopyridazin-3-yl)phenol]: the negative-log IC50 (pIC50) is 6.72 at SMARCA2^BD protein (Table 1), 4.83 with A549 cell line, 5.15 with MCF-7 cell line and 6.85 on SMARCA4^BD protein (Table 1).

For the molecule `COC1(C#Cc2cc(-c3ccccc3O)nnc2N)CCC(N2CCCC2)CC1` (stereo not shown) [Compound 15, 2-(6-amino-5-((1-methoxy-4-(pyrrolidin-1-yl)cyclohexyl)ethynyl)pyridazin-3-yl)phenol], the pIC50 was 6.72 on SMARCA2^BD protein (Table 2), 4.60 with Hela cell line, 4.88 in the data set with SW1573 cell line and 6.68 at SMARCA4^BD protein (Table 2).

Turning to `COc1ccc(C#Cc2cc(-c3ccccc3O)nnc2N)cc1` [Compound 17, 2-(6-amino-5-((4-methoxyphenyl)ethynyl)pyridazin-3-yl)phenol], the pIC50 on SMARCA2^BD protein (Table 2) was 5.96; with Hela cell line, 4.18; in the data set with SW1573 cell line it was 4.00; against SMARCA4^BD protein (Table 2), under 5.43.

In the case of `CN(C)[C@H]1[C@@H]2CN(c3cc(-c4ccccc4O)nnc3N)C[C@@H]21` [Compound 20, 2-(6-amino-5-((1R,5S,6s)-6-(dimethylamino)-3-azabicyclo[3.1.0]hex-3-yl)pyridazin-3-yl)phenol], the negative-log IC50 (pIC50) on SMARCA2^BD protein (Table 2) is 6.77; in the data set with Hela cell line, 4.41; with SW1573 cell line it was 4.04; against SMARCA4^BD protein (Table 2) it was 6.92.

Regarding `CC(=O)N[C@H]1[C@@H]2CN(c3cc(-c4ccccc4O)nnc3N)C[C@@H]21` [Compound 21, N-((1R,5S,6s)-3-(3-amino-6-(2-hydroxyphenyl)pyridazin-4-yl)-3-azabicyclo[3.1.0]hexan-6-yl)acetamide], the pIC50 against SMARCA2^BD protein (Table 2) is 6.89; in the data set with Hela cell line, 4.16; in the data set on SW1573 cell line it was under 4.00; against SMARCA4^BD protein (Table 2), 6.60.

For `CC(=O)N1CCN(c2cc(-c3ccccc3O)nnc2N)CC1` [Control compound, reference compound], the pIC50 against SMARCA2^BD protein (Table 1) is 6.15; in the data set on A549 cell line, under 4.00; in the data set on MCF-7 cell line, 4.13; with Hela cell line it was under 4.00; with SW1573 cell line it was under 4.00; at SMARCA4^BD protein (Table 1), 6.28.

On to `O=C(/C=C/N1C[C@H]2C[C@@H]1CN2c1ccccn1)c1ccccc1O` [PFI-3], for which the “inhibitory activity in 148 cancer cells” value in the data set with 148 cancer cells is “did not show significant inhibitory activity”. Also, the chemical stability result in data set [1] is given as “poor chemical stability”.
